Source: patent US9132118B2, “Taxane analogs for the treatment of brain cancer” (Tapestry Pharmaceuticals, Inc., priority 2007, dated 2015)

Experiments:
[1] = system: bovine microtubule protein (tubulin plus microtubule associated proteins); test: In vitro ED50 MT polymerization study (DAPI fluorescence tubulin assay); format: biochemical; settings: for ED50 Compound/ED50 Paclitaxel: ratio of tubulin polymerization ED50 values; for EC50: tubulin polymerization, 37° C. 30 minutes, percent of maximum assembly at 25 μM paclitaxel
Experimental: In this tubulin binding assay, microtubule protein (MTP) is used as a substrate. The assay contains bovine tubulin plus microtubule associated proteins (MAP). MTP is polymerized into microtubules in the presence of DAPI (4′,6′-diamidino-2-phenylindole), a fluorescent compound. DAPI binds to tubulin; when microtubules are formed and there is an enhancement of fluorescence. The microtubule formation is measured as a function of time, using a fluorescence plate reader. […] The method used is based on the procedure published by Donna M. Barron, et al, “Fluorescence-based high-throughput assay for antimicrotuble drugs” Analytical Biochemistry, 315: 49-56, 2003, which is incorporated by reference in its entirety. The excitation wavelength, in that assay, was set at 370 nm and the emission wavelength was set at 450 nm for the DAPI experiments.
A Bio-Tek FL 600 microplate Fluorescence Reader was used to measure the relative level of fluorescence in the DAPI assay.
Assays were conducted in 96-well plates. […] The final DMSO concentration was 4%. The plates were incubated at 37° C. for 30 minutes and read in a fluorescence plate reader using an excitation wavelength of 360 nm and an emission wavelength of 460 nm. Fluorescence values were corrected for the sample without compound. […] Experiments were done twice in triplicate. Results were subsequently combined and fit to a non-linear regression program.

[2] = system: human U251 (glioblastoma) CNS tumor cells
Excerpt: Tumor Model: Each animal was implanted with one million U251 human CNS tumor cells from an in vitro cell line by ic injection with a 25 gauge needle. The day of tumor implantation (May 24, 2006) was designated as day 0. A sufficient number of mice were implanted so that animals with body weights in a range as narrow as possible were selected for the trial on the day of treatment initiation (day 1 after tumor implantation). Animals were randomly assigned to the treatment groups and individually identified by earmark codes.
A portion of this solution was then diluted with the complete vehicle to achieve the lower dosing concentration of 1.2 mg/mL. […] Temozolomide (Temodar, Schering Corporation) was prepared on each day of injection in Klucel+tween 80 at a concentration of 4 mg/mL. Temozolomide was administered within 5 minutes of formulation on the basis of exact body weight using a volume of 0.2 mL/10 g of body weight.
Data Collection: Animal health surveillance was conducted and mortality data were collected daily. The animals were weighed twice weekly starting with the first day of treatment.
Study Duration: The study was terminated 100 days after tumor implantation. Any animal found moribund or whose body weight dropped below 14 g was euthanized prior to study termination.
Parameters Evaluated: Number of 100-day survivors, median day of death, and the increase in lifespan based on median day of death and expressed as a percentage (% ILS), median survival time and the % ILS based on median survival time.
Administration of the Ringer's solution was initiated when animal body weights dropped by greater than 10% and continued until the animal recovered, died, or was euthanized.

[3] = temozolomide 80 mg/kg/dose po q4d×3

Structure (SMILES)	ED50 Compound/ED50 Paclitaxel [1]	EC50 [1] [µM]	ILS ([2]; Group 4: TMZ 80 mg/kg, po. QD1, 5, 9) [%]	loss in mean body weight [2, 3] [%]	treatment-related deaths (in words) [2, 3]
CC(=O)O[C@@]12CO[C@@H]1C[C@H](O)[C@@]1(C)C(=O)[C@H](O)C3=C(C)[C@@H](OC(=O)[C@H](O)[C@@H](NC(=O)OC(C)(C)C)c4ccccc4)C[C@@](O)([C@@H](OC(=O)c4ccccc4)[C@H]21)C3(C)C [Docetaxel, docetaxel]	1.07	3.18 ± 0.45	–	–	–
C/C(=C\c1csc(C)n1)[C@@H]1C[C@@H]2O[C@]2(C)CCC[C@H](C)[C@H](O)[C@@H](C)C(=O)C(C)(C)[C@@H](O)CC(=O)O1 [Epothilone B]	1.11	3.31 ± 0.51	–	–	–
Cn1nnc2c(C(N)=O)ncn2c1=O [Temozolomide, reference compound]	–	–	380	8	without treatment-related deaths
